pIC50: −log10 of the molar value.
What was measured:
PD-1/PD-L1 = PD-1/PD-L1 (Homo sapiens (Human), UniProt Q9NZQ7); assay: PD-1/PD-L1 biochemical protein-protein interaction assay (ALPHA); type: binding; conditions: 0.3 nM His tagged PD-L1, 2.5 nM biotinylated Fc-PD-1, readings of 0.064 nM are equal to or less than 0.064 nM, read-out: IC50 PD-L1-PD1
Protocol: Compounds were tested in biochemical protein-protein interaction assays to determine if they can specifically block the interaction between the extracellular domains of PD-1/PD-L1 or CTLA/CD80. Binding of the protein pairs is measured using a bead based Amplified Luminescent Proximity Homogeneous Assay (ALPHA) platform. […] Final protein concentration in the assays were 0.3 nM (His tagged PD-L1), 2.5 nM (biotinylated Fc-PD-1), 1 nM (His tagged CTLA4) and 1 nM (biotinylated CD80).

PD-L1 = PD-L1 (Homo sapiens (Human), UniProt Q9NZQ7); assay: PD-L1/PD-L1 dimerization biochemical protein-protein interaction assay (ALPHA); type: binding; conditions: 0.5 nM His tagged PD-L1 and 0.5 nM FLAG tagged PD-L1, Table 4A, read-out: AC50 PDL1 Dimer 1 nM
PD-L1, sequence (Q9NZQ7 19-238): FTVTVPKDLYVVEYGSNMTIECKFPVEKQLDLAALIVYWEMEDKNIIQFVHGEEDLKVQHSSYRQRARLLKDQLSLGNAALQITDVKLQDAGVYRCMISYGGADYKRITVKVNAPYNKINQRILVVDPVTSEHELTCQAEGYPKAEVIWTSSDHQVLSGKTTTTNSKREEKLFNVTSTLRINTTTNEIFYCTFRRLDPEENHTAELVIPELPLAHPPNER
PD-L1, sequence (Q9NZQ7 19-238): as above

PD-1/PD-L1, sequence (Q9NZQ7 19-238): as above

| Structure (SMILES) | pIC50 (PD-1/PD-L1) | AC50 (PD-L1) [nM] |
| --- | --- | --- |
| COc1nc(-c2cccc(-c3cccc4c3CC[C@@H]4Nc3nc(OC)c(CN4CC5(CCC(=O)N5)C4)cc3Cl)c2Cl)ccc1CNC[C@@H]1CCC(=O)N1 [A-7] | 8.93 | 180 |
| COc1nc(-c2cccc(-c3cccc4c3CC[C@@H]4Nc3nc(OC)c(CN4CC[C@@H](C(=O)O)C4)cc3Cl)c2Cl)ccc1CNC[C@@H]1CCC(=O)N1 [A-8] | ≥ 10.19 | 79.7 |
| COc1nc(-c2cccc(-c3cccc4c3CC[C@@H]4Nc3nc(OC)c(CNC[C@@H]4CCC(=O)N4)cc3Cl)c2Cl)ccc1CNC[C@@H]1CCC(=O)N1 [A-9] | 8.78 | 150 |
| COc1cc(N[C@H]2CCc3c(-c4cccc(-c5ccc(CNC[C@@H]6CCC(=O)N6)c(OC)n5)c4Cl)cccc32)c(C(F)(F)F)cc1CN1CC[C@H](C(=O)O)C1 [A-10] | ≥ 10.19 | 16.7 |
| COc1cc(N[C@H]2CCc3c(-c4cccc(-c5ccc(CNC[C@@H]6CCC(=O)N6)c(OC)n5)c4Cl)cccc32)c(C(F)(F)F)cc1CN1CC[C@@H](C(=O)O)C1 [A-11] | ≥ 10.19 | 34.8 |
| COc1cc(N[C@H]2CCc3c(-c4cccc(-c5ccc(CNC[C@@H]6CCC(=O)N6)c(OC)n5)c4Cl)cccc32)c(C(F)(F)F)cc1CN1CC2(C(=O)O)CCC1CC2 [A-12] | ≥ 10.19 | 26.4 |
| COc1cc(N[C@H]2CCc3c(-c4cccc(-c5ccc(CNC[C@@H]6CCC(=O)N6)c(OC)n5)c4Cl)cccc32)c(Cl)cc1CN1CC2(C(=O)O)CCC1CC2 [A-13] | 10.19 | 48.8 |
| COc1cc(N[C@H]2CCc3c(-c4cccc(-c5ccc(CNC[C@@H]6CCC(=O)N6)c(OC)n5)c4Cl)cccc32)c(Cl)cc1CN1CC[C@@](C)(C(=O)O)C1 [A-14, (R)-1-(5-chloro-4-(((S)-4-(2-chloro-3-(6-methoxy-5-(((((S)-5-oxopyrrolidin-2-yl)methyl)amino)methyl)pyridin-2-yl)phenyl)-2,3-dihydro-1H-inden-1-yl)amino)-2-methoxybenzyl)-3-methylpyrrolidine-3-carboxylic acid] | ≥ 10.19 | 30.4 |
| COc1cc(N[C@H]2CCc3c(-c4cccc(-c5ccc(CNC[C@@H]6CCC(=O)N6)c(OC)n5)c4Cl)cccc32)c(Cl)cc1CN1CC[C@H](C(=O)O)C1 [A-15] | ≥ 10.19 | 51.6 |
| COc1cc(N[C@H]2CCc3c(-c4cccc(-c5ccc(CNC[C@@H]6CCC(=O)N6)c(OC)n5)c4Cl)cccc32)c(Cl)cc1CN1CC[C@@H](C(=O)O)C1 [A-16] | ≥ 10.19 | 42.1 |
| COc1nc(-c2cccc(-c3cccc4c3CC[C@@H]4Nc3nc(OC)c(CN)nc3C(F)(F)F)c2Cl)ccc1CNC[C@@H]1CCC(=O)N1 [A-17] | 10.11 | 13.9 |
| COc1nc(-c2cccc(-c3cccc4c3CC[C@@H]4Nc3nc(OC)c(CN4CC[C@@H](C(=O)O)C4)nc3C(F)(F)F)c2Cl)ccc1CNC[C@@H]1CCC(=O)N1 [A-19] | ≥ 10.19 | 26.1 |
| COc1nc(-c2cccc(-c3cccc4c3CC[C@@H]4Nc3nc(OC)c(CN4CC[C@@](C)(C(=O)O)C4)nc3C(F)(F)F)c2Cl)ccc1CNC[C@@H]1CCC(=O)N1 [A-20] | ≥ 10.19 | 29.1 |
| COc1nc(-c2cccc(-c3cccc4c3CC[C@@H]4Nc3nc(OC)c(CNC4(C(=O)O)CCC4)cc3C(F)(F)F)c2Cl)ccc1CNCC1CCC(=O)N1 (some centres unmarked) [A-22] | ≥ 10.19 | 8.17 |
| COc1nc(-c2cccc(-c3cccc4c3CC[C@@H]4Nc3nc(OC)c(CN4CC[C@@H](C(=O)O)C4)cc3C(F)(F)F)c2Cl)ccc1CN1CC2(CCC(=O)N2)C1 [A-24] | ≥ 10.19 | 38.8 |
| COc1nc(-c2cccc(-c3cccc4c3CC[C@@H]4Nc3nc(OC)c(CN4CC[C@@H](C(=O)O)C4)cc3C(F)(F)F)c2Cl)ccc1CN1CC(C)(O)C1 [A-25] | ≥ 10.19 | 28.1 |
| COc1nc(N[C@H]2CCc3c(-c4cccc(-c5ccc(CNC[C@@H]6CCC(=O)N6)c(OCC#N)n5)c4Cl)cccc32)c(C(F)(F)F)nc1CN1CC[C@@](C)(C(=O)O)C1 [A-26] | ≥ 10.19 | 13.4 |
| COc1nc(N[C@H]2CCc3c(-c4cccc(-c5ccc(CNC[C@@H]6CCC(=O)N6)c(OCC#N)n5)c4Cl)cccc32)c(C(F)(F)F)cc1CN1CCC[C@@]1(C)C(=O)O [A-27] | ≥ 10.19 | 7.77 |
| COc1nc(N[C@H]2CCc3c(-c4cccc(-c5ccc(CNC[C@@H]6CCC(=O)N6)c(OCC#N)n5)c4Cl)cccc32)c(C(F)(F)F)cc1CN1CCC[C@]1(C)C(=O)O [A-28] | ≥ 10.19 | 18.1 |
| COc1nc(N[C@H]2CCc3c(-c4cccc(-c5ccc(CNC[C@@H]6CCC(=O)N6)c(OCC#N)n5)c4Cl)cccc32)c(C(F)(F)F)cc1CNC1(C(=O)O)CC1 [A-29] | ≥ 10.19 | 5.57 |
| COc1cc(-c2cccc(-c3cccc4c3CC[C@@H]4Nc3nc(OC)c(CN(C)CC(=O)O)nc3C(F)(F)F)c2Cl)cc(F)c1CNC[C@@H]1CCC(=O)N1 [A-30] | ≥ 10.19 | 9.89 |
| COc1cc(-c2cccc(-c3cccc4c3CC[C@@H]4Nc3nc(OC)c(CN4CC[C@@H](C(=O)O)C4)nc3C(F)(F)F)c2Cl)cc(F)c1CNC[C@@H]1CCC(=O)N1 [A-31] | ≥ 10.19 | 6.84 |

Further lines, results first:

| pIC50 (PD-1/PD-L1) | AC50 (PD-L1) [nM] | Structure (SMILES) |
| --- | --- | --- |
| ≥ 10.19 | 12.5 | COc1cc(-c2cccc(-c3cccc4c3CC[C@@H]4Nc3nc(OC)c(CNC4(C(=O)O)CC4)nc3C(F)(F)F)c2Cl)cc(F)c1CNC[C@@H]1CCC(=O)N1 [A-32] |
| ≥ 10.19 | 11.7 | COc1cc(-c2cccc(-c3cccc4c3CC[C@@H]4Nc3nc(OC)c(CN4CC5(C(=O)O)CCC4CC5)nc3C(F)(F)F)c2Cl)cc(F)c1CNC[C@@H]1CCC(=O)N1 [A-33] |
| ≥ 10.19 | 8.26 | COc1nc(-c2cccc(-c3cccc4c3CC[C@@H]4Nc3nc(OC)c(CN(C)CC(=O)O)nc3C(F)(F)F)c2Cl)ccc1CNC[C@@H]1CCC(=O)N1 [A-34] |
| ≥ 10.19 | 13.2 | COc1nc(-c2cccc(-c3cccc4c3CC[C@@H]4Nc3nc(OC)c(CN(C)CC(=O)O)cc3C(F)(F)F)c2Cl)ccc1CNC[C@@H]1CCC(=O)N1 [A-35] |
| ≥ 10.19 | 2.05 | COc1cc(-c2cccc(-c3cccc4c3CC[C@@H]4Nc3nc(OC)c(CN4CC[C@@H](C(=O)O)C4)cc3C(F)(F)F)c2Cl)ccc1CNC[C@@H]1CCC(=O)N1 [A-36] |
| ≥ 10.19 | 6.26 | COc1cc(N[C@H]2CCc3c(-c4cccc(-c5ccc(CNC[C@@H]6CCC(=O)N6)c(OC)n5)c4Cl)cccc32)c(C(F)(F)F)nc1CNC1(C(=O)O)CC1 [A-37] |
| ≥ 10.19 | 16.9 | COc1nc(-c2cccc(-c3cccc4c3CC[C@@H]4Nc3nc(OC)c(CN4CCC[C@]4(C)C(=O)O)cc3C(F)(F)F)c2Cl)ccc1CNC[C@@H]1CCC(=O)N1 [A-38] |
| ≥ 10.19 | 17.8 | COc1nc(-c2cccc(-c3cccc4c3CC[C@@H]4Nc3nc(OC)c(CN4CCC[C@@]4(C)C(=O)O)cc3C(F)(F)F)c2Cl)ccc1CNC[C@@H]1CCC(=O)N1 [A-39] |
| ≥ 10.19 | 6.81 | COc1nc(-c2cccc(-c3cccc4c3CC[C@@H]4Nc3nc(OC)c(CNC(C)(C)C(=O)O)cc3C(F)(F)F)c2Cl)ccc1CNC[C@@H]1CCC(=O)N1 [A-40] |
| ≥ 10.19 | 12.6 | COc1cc(N[C@H]2CCc3c(-c4cccc(-c5ccc(CNC[C@@H]6CCC(=O)N6)c(OC)n5)c4Cl)cccc32)c(C(F)(F)F)nc1CN1CC[C@@](C)(C(=O)O)C1 [A-42] |
| ≥ 10.19 | 9.89 | COc1cc(N[C@H]2CCc3c(-c4cccc(-c5ccc(CNC[C@@H]6CCC(=O)N6)c(OC)n5)c4Cl)cccc32)c(C(F)(F)F)nc1CN1CC[C@@H](C(=O)O)C1 [A-43] |
| ≥ 10.19 | 10.6 | COc1cc(N[C@H]2CCc3c(-c4cccc(-c5ccc(CNC[C@@H]6CCC(=O)N6)c(OC)n5)c4Cl)cccc32)c(C(F)(F)F)nc1CN [A-44] |
| ≥ 10.19 | 5.86 | COc1nc(-c2cccc(-c3cccc4c3CC[C@@H]4Nc3nc(OC)c(CN[C@@H](C)C(=O)O)nc3C(F)(F)F)c2Cl)ccc1CNC[C@@H]1CC(O)C(=O)N1 (some centres unmarked) [A-45] |
| ≥ 10.19 | 7.18 | COc1nc(-c2cccc(-c3cccc4c3CC[C@@H]4Nc3nc(OC)c(CNCC(=O)O)nc3C(F)(F)F)c2Cl)ccc1CNC[C@@H]1CC(O)C(=O)N1 (some centres unmarked) [A-46] |
| ≥ 10.19 | 22.3 | COc1nc(-c2cccc(-c3cccc4c3CC[C@@H]4Nc3nc(OC)c(CN4CC5(C(=O)O)CCC4CC5)nc3C(F)(F)F)c2Cl)ccc1CNC[C@@H]1CC(O)C(=O)N1 (some centres unmarked) [A-47] |
| ≥ 10.19 | 13.5 | COc1nc(-c2cccc(-c3cccc4c3CC[C@@H]4Nc3nc(OC)c(CN[C@@H](C)C(=O)O)nc3C(F)(F)F)c2Cl)ccc1CNC[C@H]1C[C@H](O)C1 [A-48] |
| ≥ 10.19 | 10.7 | COc1nc(-c2cccc(-c3cccc4c3CC[C@@H]4Nc3nc(OC)c(CNCC(=O)O)nc3C(F)(F)F)c2Cl)ccc1CNC[C@H]1C[C@H](O)C1 [A-49] |
| ≥ 10.19 | 17.6 | COc1nc(-c2cccc(-c3cccc4c3CC[C@@H]4Nc3nc(OC)c(CN[C@@H](C)C(=O)O)nc3C(F)(F)F)c2Cl)ccc1CN[C@H]1C[C@](C)(O)C1 [A-50] |
| ≥ 10.19 | 106 | COc1nc(-c2cccc(-c3cccc4c3CC[C@@H]4Nc3nc(OC)c(CN4CCCC[C@]4(C)C(=O)O)cc3C(F)(F)F)c2Cl)ccc1CN1CC(C)(O)C1 [A-51] |
| ≥ 10.19 | 15.3 | COc1nc(-c2cccc(-c3cccc4c3CC[C@@H]4Nc3nc(OC)c(CN4CCCC[C@@]4(C)C(=O)O)cc3C(F)(F)F)c2Cl)ccc1CN1CC(C)(O)C1 [A-52] |
| ≥ 10.19 | 16.2 | COc1nc(-c2cccc(-c3cccc4c3CC[C@@H]4Nc3nc(OC)c(CN4CC(C)(C(=O)O)C4)cc3C(F)(F)F)c2Cl)ccc1CNC[C@@H]1CCC(=O)N1 [A-53] |

From patent US10774071B2, “PD-1/PD-L1 inhibitors” (Gilead Sciences, Inc., priority 2018, dated 2020)
